# Data taken from patent publication US12252484B2, “Pyrazolopyridine compounds for the treatment of autoimmune disease” (Hoffmann-La Roche Inc., priority 2018, dated 2025).
# Biological target: T1, human TLR9 (Homo sapiens, UniProt Q9NR96)
# T1 sequence (Q9NR96 26-1032): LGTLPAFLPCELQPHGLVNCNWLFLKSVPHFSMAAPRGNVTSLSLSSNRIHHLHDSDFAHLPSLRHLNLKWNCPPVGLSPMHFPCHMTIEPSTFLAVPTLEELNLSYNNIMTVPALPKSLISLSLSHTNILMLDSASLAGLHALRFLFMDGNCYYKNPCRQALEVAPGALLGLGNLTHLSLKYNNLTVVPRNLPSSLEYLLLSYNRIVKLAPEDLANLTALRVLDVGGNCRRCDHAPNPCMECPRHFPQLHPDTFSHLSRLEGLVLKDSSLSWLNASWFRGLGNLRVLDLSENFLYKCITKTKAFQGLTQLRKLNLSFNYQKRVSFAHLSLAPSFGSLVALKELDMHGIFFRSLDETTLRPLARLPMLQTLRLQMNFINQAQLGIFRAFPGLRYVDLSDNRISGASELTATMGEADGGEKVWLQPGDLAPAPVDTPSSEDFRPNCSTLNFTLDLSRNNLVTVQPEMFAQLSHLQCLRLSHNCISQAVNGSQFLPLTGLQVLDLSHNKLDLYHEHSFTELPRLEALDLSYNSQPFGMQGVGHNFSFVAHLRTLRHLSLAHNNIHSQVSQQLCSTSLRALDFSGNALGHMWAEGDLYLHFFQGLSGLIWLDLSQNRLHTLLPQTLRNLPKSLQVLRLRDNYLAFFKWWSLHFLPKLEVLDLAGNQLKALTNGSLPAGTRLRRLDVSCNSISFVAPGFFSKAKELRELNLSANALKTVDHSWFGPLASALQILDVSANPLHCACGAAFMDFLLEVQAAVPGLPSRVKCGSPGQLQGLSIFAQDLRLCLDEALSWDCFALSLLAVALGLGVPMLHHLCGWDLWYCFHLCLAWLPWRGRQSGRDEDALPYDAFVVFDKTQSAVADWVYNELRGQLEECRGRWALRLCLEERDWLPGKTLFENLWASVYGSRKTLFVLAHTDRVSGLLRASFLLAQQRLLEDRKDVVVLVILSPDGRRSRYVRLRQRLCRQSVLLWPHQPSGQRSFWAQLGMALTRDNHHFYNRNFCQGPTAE
# Assay: HEK293-Blue-hTLR-9 cells assay (SEAP reporter, ODN2006 stimulation)
# Format: cell-based
# Details: HEK293-Blue-hTLR-9 cells, ODN2006 ligand, 20 hrs incubation; read-out: TLR9 IC50
# Protocol: The following tests were carried out in order to determine the activity of the compounds of formula (I) in HEK293-Blue-hTLR-7/8/9 cells assay.
# HEK293-Blue-hTLR-9 Cells Assay:
# A stable HEK293-Blue-hTLR-9 cell line was purchased from InvivoGen (Cat. #: hkb-htlr9, San Diego, California, USA). These cells were originally designed for studying the stimulation of human TLR9 by monitoring the activation of NF-κB. A SEAP (secreted embryonic alkaline phosphatase) reporter gene was placed under the control of the IFN-β minimal promoter fused to five NF-κB and AP-1-binding sites. The SEAP was induced by activating NF-κB and AP-1 via stimulating HEK-Blue hTLR9 cells with TLR9 ligands. Therefore the reporter expression was declined by TLR9 antagonist under the stimulation of a ligand, such as ODN2006 (Cat. #: tlrl-2006-1, Invivogen, San Diego, California, USA), for incubation of 20 hrs. The cell culture supernatant SEAP reporter activity was determined using QUANTI-Blue™ kit (Cat. #: rep-qb1, Invivogen, San Diego, California, USA) at a wavelength of 640 nm, a detection medium that turns purple or blue in the presence of alkaline phosphatase.
# HEK293-Blue-hTLR9 cells were incubated at a density of 250,000˜450,000 cells/mL in a volume of 170 μL in a 96-well plate in Dulbecco's Modified Eagle's medium (DMEM) containing 4.5 g/L glucose, 50 U/mL penicillin, […], 2 mM L-glutamine, 10% (v/v) heat-inactivated fetal bovine serum with addition of 20 μL test compound in a serial dilution in the presence of final DMSO at 1% and 10 μL of 20 uM ODN2006 in above DMEM, perform incubation under 37° C. in a CO2 incubator for 20 hrs. Then 20 μL of the supernatant from each well was incubated with 180 μL Quanti-blue substrate solution at 37° C. for 2 hrs and the absorbance was read at 620˜655 nm using a spectrophotometer. The signalling pathway that TLR9 activation leads to downstream NF-κB activation has been widely accepted, and therefore similar reporter assay was modified for evaluating TLR9 antagonist.
row,IC50 [µM],SMILES
1,16,"C[C@@H]1CN(c2ccc(C#N)n3nccc23)C[C@H](C(=O)NC2(C)CCNCC2)O1 [Example 19, (2R,6R)-4-(7-cyanopyrazolo[1,5-a]pyridin-4-yl)-6-methyl-N-(4-methyl-4-piperidyl)morpholine-2-carboxamide]"
2,11,"C[C@@H]1CN(c2ccc(C#N)n3nccc23)C[C@H](C(=O)NC(C)(C)CN)O1 [Example 41, (2R,6R)-N-(2-amino-1,1-dimethyl-ethyl)-4-(7-cyanopyrazolo[1,5-a]pyridin-4-yl)-6-methyl-morpholine-2-carboxamide]"
3,> 100,"CCC(O)CNC(=O)[C@H]1CN(c2ccc(C#N)n3nccc23)C[C@@H](C)O1 (stereo partly drawn) [Example 13, (2R,6R)-4-(7-cyanopyrazolo[1,5-a]pyridin-4-yl)-N-(2-hydroxybutyl)-6-methyl-morpholine-2-carboxamide]"
4,33,"CCC(C)(C)NC(=O)[C@H]1CN(c2ccc(C#N)n3nccc23)C[C@@H](C)O1 [Example 17, (2R,6R)-4-(7-cyanopyrazolo[1,5-a]pyridin-4-yl)-N-(1,1-dimethylpropyl)-6-methyl-morpholine-2-carboxamide]"
5,71,"C[C@@H]1CN(c2ccc(C#N)n3nccc23)C[C@H](C(=O)N[C@H]2CC[C@@H](O)CC2)O1 [Example 20, Cis-(2R,6R)-4-(7-cyanopyrazolo[1,5-a]pyridin-4-yl)-N-(4-hydroxycyclohexyl)-6-methyl-morpholine-2-carboxamide]"
6,> 100,"C[C@@H]1CN(c2ccc(C#N)n3nccc23)C[C@H](C(=O)NC(C)(C)CO)O1 [Example 16, (2R,6R)-4-(7-cyanopyrazolo[1,5-a]pyridin-4-yl)-N-(2-hydroxy-1,1-dimethyl-ethyl)-6-methyl-morpholine-2-carboxamide]"

# The remaining lines, values behind:
row,SMILES,IC50 [µM]
1,"C[C@@H]1CN(c2ccc(C#N)n3nccc23)C[C@H](C(=O)NC2CC3CCC2CN3C)O1 (stereo partly drawn) [Example 34, (2R,6R)-4-(7-cyanopyrazolo[1,5-a]pyridin-4-yl)-6-methyl-N-(2-methyl-2-azabicyclo[2.2.2]octan-5-yl)morpholine-2-carboxamide]",11
2,"C[C@@H]1CN(c2ccc(C#N)n3nccc23)C[C@H](C(=O)NC2C3CNCC2COC3)O1 (stereo partly drawn) [Example 27, (2R,6R)-4-(7-cyanopyrazolo[1,5-a]pyridin-4-yl)-6-methyl-N-(3-oxa-7-azabicyclo[3.3.1]nonan-9-yl)morpholine-2-carboxamide]",6.8
3,"C[C@H]1C[C@@H](NC(=O)[C@H](C)N)CN(c2ccc(C#N)n3nccc23)C1 [Example 44, (2S)-2-amino-N-[(3R,5S)-1-(7-cyanopyrazolo[1,5-a]pyridin-4-yl)-5-methyl-3-piperidyl]propanamide]",10
4,"C[C@@H]1CN(c2ccc(C#N)n3nccc23)C[C@H](C(=O)NC23CC4CC(CC(C4)C2)C3)O1 [Example 12, (2R,6R)-N-(1-adamantyl)-4-(7-cyanopyrazolo[1,5-a]pyridin-4-yl)-6-methyl-morpholine-2-carboxamide]",42
5,"C[C@H]1C[C@@H](N)CN(c2ccc(C#N)n3nccc23)C1 [Example 43, 4-[(3R,5S)-3-amino-5-methyl-1-piperidyl]pyrazolo[1,5-a]pyridine-7-carbonitrile]",10
6,"C[C@@H]1CN(c2ccc(C#N)n3nccc23)C[C@H](C(=O)NC2CC3CCCC(C2)N3)O1 (stereo partly drawn) [Example 14, (2R,6R)-N-(9-azabicyclo[3.3.1]nonan-3-yl)-4-(7-cyanopyrazolo[1,5-a]pyridin-4-yl)-6-methyl-morpholine-2-carboxamide]",1.6
7,"C[C@@H]1CN(c2ccc(C#N)n3nccc23)C[C@H](C(=O)NC2CC3CC2CN3)O1 (stereo partly drawn) [Example 36, (2R,6R)-N-(2-azabicyclo[2.2.1]heptan-5-yl)-4-(7-cyanopyrazolo[1,5-a]pyridin-4-yl)-6-methyl-morpholine-2-carboxamide]",12
8,"C[C@@H]1CN(c2ccc(C#N)n3nccc23)C[C@H](C(=O)N[C@H]2CC[C@H](O)CC2)O1 [Example 21, Trans-(2R,6R)-4-(7-cyanopyrazolo[1,5-a]pyridin-4-yl)-N-(4-hydroxycyclohexyl)-6-methyl-morpholine-2-carboxamide]",> 100
9,"C[C@@H]1CN(c2ccc(Cl)n3nccc23)C[C@H](C(=O)NC2CCN(C)CC2)O1 [Example 38, (2R,6R)-4-(7-chloropyrazolo[1,5-a]pyridin-4-yl)-6-methyl-N-(1-methyl-4-piperidyl)morpholine-2-carboxamide]",36
10,"C[C@@H]1CN(c2ccc(C#N)n3nccc23)C[C@H](C(=O)NC2CCN(C)CC2)O1 [Example 1, (2R,6R)-4-(7-cyanopyrazolo[1,5-a]pyridin-4-yl)-6-methyl-N-(1-methyl-4-piperidyl)morpholine-2-carboxamide]",15
11,"C[C@@H]1CN(c2ccc(C#N)n3nccc23)C[C@H](C(=O)NC2C3CCCC2CNC3)O1 (stereo partly drawn) [Example 37, (2R,6R)-N-(3-azabicyclo[3.3.1]nonan-9-yl)-4-(7-cyanopyrazolo[1,5-a]pyridin-4-yl)-6-methyl-morpholine-2-carboxamide]",6.8
12,"C[C@@H]1CN(c2ccc(C#N)n3ncc(F)c23)C[C@H](C(=O)NC2CCN(C)CC2)O1 [Example 47, (2R,6R)-4-(7-cyano-3-fluoro-pyrazolo[1,5-a]pyridin-4-yl)-6-methyl-N-(1-methyl-4-piperidyl)morpholine-2-carboxamide]",14
